Assay results: patent US8178506B2, “Oligomeric compounds and compositions for use in modulation of small non-coding RNAs” (Regulus Therapeutics Inc., priority 2003, dated 2012)
In the oligonucleotide strings, read from the 5' end, every base follows the letter of its sugar. An asterisk marks phosphorothioate; unmarked linkages are phosphodiester. Other units and linkages are bracketed, terminal groups are in braces. A string of capitals states the bases alone. e = 2'-O-(2-methoxyethyl) (MOE); [5mC] = 5-methylcytosine; d = 2'-deoxy (DNA)

Assays:
Type in all cases: cell-based, mouse
IL-12 mRNA = IL-12 mRNA in LPS-activated primary murine macrophages; conditions: for IL-12 mRNA expression, % UTC: LPS, average of 3 treatments; for IL-12 mRNA expression, +IFN % UTC: 300 nM oligomeric compound, stimulation with IFN-gamma and LPS, average of 2 experiments
Description: (§1) To investigate the role of miRNAs in the immune response, oligomeric compounds of the present invention targeting miRNAs were tested for their effects upon lipopolysaccharide (LPS)-activated primary murine macrophages. Macrophages participate in the immune response, for example, in the recognition and phagocytosis of microorganisms, including bacteria. Interferon-gamma (IFN-gamma) released by helper T cells is one type of signal required for macrophage activation, and LPS can serve as an additional stimulus. LPS is a component of the gram-negative bacterial cell wall and acts as an agonist for toll-like receptor 4 (TLR4), the primary LPS receptor expressed by macrophages. The proinflammatory cytokines interleukin-12 (IL-12) and interleukin-6 (IL-6) are induced by LPS treatment of macrophages, thus the expression of the mRNAs encoding these cytokines was used to evaluate the response of macrophages to LPS following treatment with oligomeric compounds targeting miRNAs.
(§2) Macrophages were isolated as follows. Female C57B1/6 mice (Charles River Laboratories, Wilmington, Mass.) were injected intraperitoneally with 1 ml 3% thioglycollate broth (Sigma-Aldrich, St. Louis, Mo.), and peritoneal macrophage cells were isolated by peritoneal lavage 4 days later. The cells were plated in 96-well plates at 40,000 cells/well for one hour in serum-free RPMI adjusted to contain 10 mM HEPES (Invitrogen Life Technologies, Carlsbad, Calif.), allowed to adhere, then non-adherent cells were washed away and the media was replaced with RPMI containing 10 mM HEPES, 10% FBS and penicillin/streptomycin (“complete” RPMI; Invitrogen Life Technologies, Carlsbad, Calif.).
(§3) Oligomeric compounds were introduced into the cells using the non-liposomal transfection reagent FuGENE 6 Transfection Reagent (Roche Diagnostics Corp., Indianapolis, Ind.). Oligomeric compound was mixed with FuGENE 6 in 1 mL of serum-free RPMI to achieve a concentration of 10 μL FuGENE per 1000 nM oligomeric compound. The oligomeric compound/FuGENE complex was allowed to form at room temperature for 20 minutes. This mixture was diluted to the desired concentration of oligomeric compound by the addition of the appropriate volume of complete RPMI. The final ratio of FuGENE 6 to oligomeric compound was 1 μL of FuGENE 6 per 100 nM oligomeric compound. A volume of 100 μL of oligomeric compound/FuGENE/RPMI was added to each well of the 96-well plate in which the macrophages were cultured. Each oligomeric compound treatment was repeated in triplicate.
(§4) Following oligomeric compound treatment, cells were stimultated with LPS. Cells were cultured in the presence of the transfection complex for approximately 24 to 28 hours at 37° C. and 5% CO2, after which the medium containing the transfection complex was removed from the cells, and complete RPMI containing 100 ng/mL LPS (Sigma-Aldrich Corp., St. Louis, Mo.) was added to the cells for a period of approximately 24 hours. Control samples included (1) cells receiving no oligomeric compound, stimulated with LPS and (2) cells receiving neither oligomeric compound nor LPS treatment.
(§5) In another embodiment, following oligomeric compound treatment, cells were first activated by IFN-gamma, to amplify the response to LPS. Cells were cultured in the presence of the transfection complex for approximately 24 hours at 37° C. and 5% CO2, at which point the medium containing the transfection complex was removed from the cells, and complete RPMI containing 100 ng/mL recombinant mouse IFN-gamma (R&D Systems, Minneapolis, Minn.) was added to the cells. After the 4 hour treatment with INF-gamma, cells were treated with 100 ng/mL LPS for approximately 24 hours. Control samples included (1) cells receiving no oligomeric compound, stimulated with LPS and (2) cells receiving neither oligomeric compound nor LPS treatment. […]

IL-6 mRNA = IL-6 mRNA in LPS-activated primary murine macrophages; conditions: for IL-6 mRNA expression, % UTC: average of 3 treatments; for IL-6 expression: IFN-gamma-stimulated and unstimulated cells, 75-600 nM
Description: as §1, §2, §3, §4, §5

B16-F10 cells = assay: Cell cycle assay in B16-F10 cells; conditions: 150 nM, 48 hours, relative to untreated control
Description: BJ cells were routinely cultured in MEM high glucose with 2 mM L-glutamine and Earle's BSS adjusted to contain 1.5 g/L sodium bicarbonate and supplemented with 10% fetal bovine serum, 0.1 mM non-essential amino acids and 1.0 mM sodium pyruvate (all media and supplements from Invitrogen Life Technologies, Carlsbad, Calif.). B16-F10 cells were routinely cultured in DMEM high glucose (Invitrogen Life Technologies, Carlsbad, Calif.) supplemented with 10% fetal bovine serum (Invitrogen Life Technologies, Carlsbad, Calif.). T47D cells were cultured in DMEM High glucose media (Invitrogen Life Technologies, Carlsbad, Calif.) supplemented with 10% fetal bovine serum. […] Cells were plated on collagen-coated 24-well plates (Falcon-Primaria #3047, BD Biosciences, Bedford, Mass.) at approximately 50,000 cells per well and allowed to attach to wells overnight.
In further studies, additional cell lines were treated with oligomeric compounds targeted against miRNAs to assess the effects of each oligomeric compound on cell cycling. BJ, B16, T47D, and HeLa cells were cultured and transfected as described above. […] T47Dp53 cells are T47D cells that have been transfected with and selected for maintenance of a plasmid that expresses a wildtype copy of the p53 gene (for example, pCMV-p53; Clontech, Palo Alto, Calif.), using standard laboratory procedures. BJ cells were treated with 200 nM of each oligomeric compound, and T47D, T47Dp53, HeLa, and B16 cells were treated with 150 nM of each oligomeric compound. The human foreskin fibroblast BJ cell line represents a non-cancer cell line, while HeLa, T47D, T47Dp53 cells and the mouse melanoma cell line B16-F10 represent cancerous cell lines. For comparison, oligomeric compounds ISIS 183891 (SEQ ID NO: 847) and ISIS 285717 ([…]; herein incorporated as SEQ ID NO: 857), both targeting the kinesin-like 1/Eg5 mRNA, involved in cell cycling, were used as positive controls. The random-mer ISIS 29848 was used as a negative control. Additionally, the oligomeric compounds ISIS Number 25690 ([…]; herein incorporated as SEQ ID NO: 858) and ISIS Number 25691 ([…]; herein incorporated as SEQ ID NO: 859), targeted to nucleotides 3051-3070 and 3085-3104, respectively, of the mRNA encoding the Drosha RNase III (GenBank Accession NM_013235.2, incorporated herein as SEQ ID NO: 860) were also tested. ISIS Number 25690 and ISIS Number 25691 are 5-10-52′-MOE gapmer compounds, 20 nucleotides in length, with phosphorothioate internucleoside linkages throughout the oligomeric compound. All cytidine residues are 5-methylcytidines. Transfections were performed using the methods described herein. Cells were prepared for flow cytometry 48-hours after oligonucleotide treatment. Results of these studies are shown in Table 35, where data are expressed as percentage of cells in each phase relative to the untreated control cells in that phase.

[1] = normalized to LPS-treated cells without oligomeric compound

Row | Substance | IL-12 mRNA expression, % UTC (IL-12 mRNA; 75 nM, +IFN) | IL-12 mRNA expression, % UTC (IL-12 mRNA; 75 nM, −IFN) | IL-12 mRNA expression, % UTC (IL-12 mRNA; 150 nM, +IFN) | IL-12 mRNA expression, % UTC (IL-12 mRNA; 150 nM, −IFN) | IL-12 mRNA expression, +IFN % UTC (IL-12 mRNA; [1]) | IL-12 mRNA expression, % UTC (IL-12 mRNA; 300 nM, +IFN) | IL-12 mRNA expression, % UTC (IL-12 mRNA; 300 nM, −IFN) | IL-12 mRNA expression, % UTC (IL-12 mRNA; 600 nM, +IFN) | IL-12 mRNA expression, % UTC (IL-12 mRNA; 600 nM, −IFN) | IL-6 mRNA expression, % UTC (IL-6 mRNA; 75 nM, +IFN) | IL-6 mRNA expression, % UTC (IL-6 mRNA; 75 nM, −IFN) | IL-6 mRNA expression, % UTC (IL-6 mRNA; 150 nM, +IFN) | IL-6 mRNA expression, % UTC (IL-6 mRNA; 150 nM, −IFN) | IL-6 mRNA expression, % UTC (IL-6 mRNA; 300 nM, +IFN) | IL-6 mRNA expression, % UTC (IL-6 mRNA; 300 nM, −IFN) | IL-6 mRNA expression, % UTC (IL-6 mRNA; 600 nM, +IFN) | IL-6 mRNA expression, % UTC (IL-6 mRNA; 600 nM, −IFN) | IL-6 expression (IL-6 mRNA) | other results
1 | 229927 (antisense e[5mC]*e[5mC]*eA*e[5mC]*eA*dT*dT*dG*dA*dG*dT*dT*dT*d[5mC]*dT*eT*eT*eA*eA*eG) [compound 229927] | 46 % UTC | 67 % UTC | 35 % UTC | 53 % UTC | 145 % UTC | 16 % UTC | 45 % UTC | 8 % UTC | 46 % UTC | 54 % UTC | 57 % UTC | 39 % UTC | 52 % UTC | 40 % UTC | 44 % UTC | 69 % UTC | 104 % UTC |  | IL-12 mRNA expression, −IFN % UTC (IL-12 mRNA; 300 nM oligomeric compound and LPS, no IFN-gamma pretreatment, single experiment, normalized to LPS-treated cells without oligomeric compound): 92 % UTC
2 | 285717 (antisense TCGGTTCTTTCCAAGGCTGA; chemistry not given here) [compound 285717] |  |  |  |  |  |  |  |  |  |  |  |  |  |  |  |  |  |  | % cells in cell cycle phase G1 (B16-F10 cells): 72%; % cells in cell cycle phase G2/M (B16-F10 cells): 220%; % cells in cell cycle phase S (B16-F10 cells): 78%; % cells in cell cycle phase aneuploid (B16-F10 cells): 178%; % cells in cell cycle phase subG1 (B16-F10 cells): 627%
3 | 289606 (antisense CCUUCCCUGAAGGUUCCUCC; all 2'-MOE, all C 5-methyl, all phosphorothioate, T or U not given here) [compound 289606] | 59 % UTC | 89 % UTC | 46 % UTC | 99 % UTC | 129 % UTC | 52 % UTC | 80 % UTC | 66 % UTC | 98 % UTC | 78 % UTC | 77 % UTC | 69 % UTC | 68 % UTC | 70 % UTC | 65 % UTC | 59 % UTC | 77 % UTC |  | 
4 | AACCCACCGACAGCAATGAATGTT (chemistry not given here) [ISIS 327941, uniform 2′-MOE PS; targets mir-181b] |  |  |  |  |  |  |  |  |  |  |  |  |  |  |  |  |  | increased in a dose-dependent manner | IL-12 mRNA expression, % of the untreated control (IL-12 mRNA; IFN-gamma then LPS, all doses): less than 5%
5 | CTTCCAGTCGGGGATGTTTACA (anti-miR; chemistry not fully specified) [ISIS 327921, uniform 2′-MOE PS; targets mir-30d] |  |  |  |  |  |  |  |  |  |  |  |  |  |  |  |  |  | increased in a dose-dependent manner | IL-12 expression, % of the control (IL-12 mRNA; IFN-gamma then LPS, 75 nM): 14%; IL-12 expression, % of the untreated control (IL-12 mRNA; IFN-gamma then LPS, all other doses (150, 300, 600 nM)): less than 10%; IL-12 expression, percentage of untreated control (IL-12 mRNA; LPS alone, 75, 150, 300 and 600 nM): ≥ 53%; IL-12 mRNA expression (IL-12 mRNA; LPS-stimulated primary murine macrophages): inhibited IL-12 mRNA expression in a dose-dependent manner
